These are literature values, as cited in PubChem BioAssay AID1259409 (Chemical Carcinogenesis Research Information System (CCRIS), 2018).

The subject of the series is rodent chemically induced tumor inhibition, incidence and multiplicity. Briefly: CCRIS tumor inhibitor studies.

Turning to Ac-SDAAVDTSSEITTKDLKEKKEVVEEAEN-OH, the “tumour outcome (control, treated, inhibition, significance)” value is, setting by setting: (Carcinogen: N-BUTYL-N-(4-HYDROXYBUTYL)NITROSAMINE, 3817-11-6, Dose [Inhibitor]: 0, 0.3 UG IN 100 µL SALINE INJECTED INTO RIGHT THIGH 2/WK FOR 20 WK (STUDY DURATION: 20 WK), Route [Inhibitor]: INTRAMUSCULAR, Species: MOUSE, Strain/Sex: C3H/HEJ/FEMALE, Target Tissue: Type of Lesion: BLADDER: CARCINOMA, Dose [Carcinogen]: 0.05% (W/V) SOLUTION IN DRINKING WATER WITH 0.001% (W/V) TWEEN 80 FOR 20 WK, Promoter: NONE USED) 6/11 (55%), 5/12 (42%), 24%, not significant; (Carcinogen: N-BUTYL-N-(4-HYDROXYBUTYL)NITROSAMINE, 3817-11-6, Dose [Inhibitor]: 0, 0.3 UG IN 100 µL SALINE INJECTED INTO RIGHT THIGH 2/WK FOR 25 WK (STUDY DURATION: 25 WK), Route [Inhibitor]: INTRAMUSCULAR, Species: MOUSE, Strain/Sex: C3H/HEJ/FEMALE, Target Tissue: Type of Lesion: BLADDER: CARCINOMA, Dose [Carcinogen]: 0.05% (W/V) SOLUTION IN DRINKING WATER WITH 0.001% (W/V) TWEEN 80 FOR 25 WK, Promoter: NONE USED) 9/16 (56%), 9/16 (56%), 0%, not significant; (Carcinogen: N-BUTYL-N-(4-HYDROXYBUTYL)NITROSAMINE, 3817-11-6, Dose [Inhibitor]: 0, 6 UG IN 100 µL SALINE INJECTED INTO RIGHT THIGH 2/WK FOR 30 WK (STUDY DURATION: 30 WK), Route [Inhibitor]: INTRAMUSCULAR, Species: RAT, Strain/Sex: WISTAR/FEMALE, Target Tissue: Type of Lesion: BLADDER: CARCINOMA, Dose [Carcinogen]: 0.025% (W/V) SOLUTION IN DRINKING WATER WITH 0.0005% (W/V) TWEEN 80 FOR 30 WK, Promoter: NONE USED) 9/11 (82%), 6/11 (55%), 33%, not significant.

In the case of `C#C[C@]1(O)CC[C@H]2[C@@H]3CCc4cc(CC)ccc4[C@H]3CC[C@@]21C` (tested in a mixture with another compound), the “tumour outcome (control, treated, inhibition, significance)” value runs as follows: (Carcinogen: 3-METHYLCHOLANTHRENE, 56-49-5, Dose [Inhibitor]: 0, 1/200 OF A PILL CONTAINING 0.25 UG ETHINYLESTRADIOL AND 5 UG LYNESTRENOL 1/D FOR 60 D (STUDY DURATION: 60 D), Route [Inhibitor]: ORAL, Species: MOUSE, Strain/Sex: SWISS/FEMALE, Target Tissue: Type of Lesion: UTERINE CERVIX: TUMOR, Dose [Carcinogen]: 300 UG IN BEESWAX IMPREGNATED COTTON THREAD INSERTED INTO CANAL OF UTERINE CERVIX FOR DURATION OF STUDY, Promoter: NONE USED) 2/23 (9%), 1/27 (4%), 56%, not significant; (Carcinogen: 3-METHYLCHOLANTHRENE, 56-49-5, Dose [Inhibitor]: 0, 1/200 OF A PILL CONTAINING 0.25 UG ETHINYLESTRADIOL AND 5 UG LYNESTRENOL 1/D FOR 90 D (STUDY DURATION: 90 D), Route [Inhibitor]: ORAL, Species: MOUSE, Strain/Sex: SWISS/FEMALE, Target Tissue: Type of Lesion: UTERINE CERVIX: TUMOR, Dose [Carcinogen]: 300 UG IN BEESWAX IMPREGNATED COTTON THREAD INSERTED INTO CANAL OF UTERINE CERVIX FOR DURATION OF STUDY, Promoter: NONE USED) 6/23 (26%), 4/20 (20%), 23%, not significant; (Carcinogen: 3-METHYLCHOLANTHRENE, 56-49-5, Dose [Inhibitor]: 0, 1/2000 OF A PILL CONTAINING 0.025 UG ETHINYLESTRADIOL AND 0.5 UG OF LYNESTRENOL 1/D FOR 60 D (STUDY DURATION: 60 D), Route [Inhibitor]: ORAL, Species: MOUSE, Strain/Sex: SWISS/FEMALE, Target Tissue: Type of Lesion: UTERINE CERVIX: TUMOR, Dose [Carcinogen]: 300 UG IN BEESWAX IMPREGNATED COTTON THREAD INSERTED INTO CANAL OF UTERINE CERVIX FOR DURATION OF STUDY, Promoter: NONE USED) 2/23 (9%), 1/24 (4%), 56%, not significant; (Carcinogen: 3-METHYLCHOLANTHRENE, 56-49-5, Dose [Inhibitor]: 0, 1/2000 OF A PILL CONTAINING 0.025 UG ETHINYLESTRADIOL AND 0.5 UG OF LYNESTRENOL 1/D FOR 90 D (STUDY DURATION: 90 D), Route [Inhibitor]: ORAL, Species: MOUSE, Strain/Sex: SWISS/FEMALE, Target Tissue: Type of Lesion: UTERINE CERVIX: TUMOR, Dose [Carcinogen]: 300 UG IN BEESWAX IMPREGNATED COTTON THREAD INSERTED INTO THE CANAL OF THE UTERINE CERVIX FOR THE DURATION OF STUDY, Promoter: NONE USED) 6/23 (26%), 1/31 (3%), 88%, p<0.05.

`O=C1COc2ccccc21`: the “tumour outcome (control, treated, inhibition, significance)” value (Carcinogen: BENZO[A]PYRENE, 50-32-8, Dose [Inhibitor]: 0.034 MMOL/G IN DIET FOR 5 WK BEGINNING 1 WK PRIOR TO CARCINOGEN TREATMENT (STUDY DURATION: 21 WK), Route [Inhibitor]: ORAL, Species: MOUSE, Strain/Sex: ICR/FEMALE, Target Tissue: Type of Lesion: FORESTOMACH: TUMOR, Dose [Carcinogen]: 1 MG IN 0.2 ML CORN OIL 2/WK FOR 4 WK, Promoter: NONE USED) was 95%, 89%, 6%, not significant.

`CC1(C)O[C@@H]2C[C@H]3[C@@H]4C[C@H](F)C5=CC(=O)C=C[C@]5(C)[C@@]4(F)[C@@H](O)C[C@]3(C)[C@]2(C(=O)CO)O1`: the “tumour outcome (control, treated, inhibition, significance)” value (Carcinogen: 3-METHYLCHOLANTHRENE, 56-49-5, Dose [Inhibitor]: 1 UG IN ACETONE 2/WK FOR 23 WK BEGINNING 1 WK POST CARCINOGEN DOSE (STUDY DURATION: 24 WK), Route [Inhibitor]: DERMAL, Species: MOUSE, Strain/Sex: CD-1/MALE, Target Tissue: Type of Lesion: SKIN: TUMOR, Dose [Carcinogen]: 600 UG IN ACETONE ONCE, Promoter: NONE USED) was 10%, 5%, 50%, not calculated; the “tumour outcome (control, treated, inhibition, significance)” value (Carcinogen: 3-METHYLCHOLANTHRENE, 56-49-5, Dose [Inhibitor]: 10 UG IN ACETONE 2/WK FOR 23 WK BEGINNING 1 WK POST CARCINOGEN DOSE (STUDY DURATION: 24 WK), Route [Inhibitor]: DERMAL, Species: MOUSE, Strain/Sex: CD-1/MALE, Target Tissue: Type of Lesion: SKIN: TUMOR, Dose [Carcinogen]: 600 UG IN ACETONE ONCE, Promoter: NONE USED) is 10%, 45%, -350%, not calculated; the “tumour outcome (control, treated, inhibition, significance)” value (Carcinogen: 7,12-DIMETHYLBENZ[A]ANTHRACENE, 57-97-6, Dose [Inhibitor]: 0, 0.5 NMOL IN 200 µL ACETONE APPLIED 30 MIN PRIOR TO EACH PROMOTER DOSE 2/WK FOR 25 WK BEGINNING 1 WK POST CARCINOGEN D, Route [Inhibitor]: DERMAL, Species: MOUSE, Strain/Sex: CD-1/FEMALE, Target Tissue: Type of Lesion: SKIN: PAPILLOMA, Dose [Carcinogen]: 200 NMOL IN 200 µL ACETONE ONCE, Promoter: 12-O-TETRADECANOYLPHORBOL-13-ACETATE, 16561-29-8) was 90%, 40%, 56%, not calculated; the “tumour outcome (control, treated, inhibition, significance)” value (Carcinogen: 7,12-DIMETHYLBENZ[A]ANTHRACENE, 57-97-6, Dose [Inhibitor]: 0, 0.5 NMOL IN 200 µL ACETONE APPLIED 30 MIN PRIOR TO EACH PROMOTER DOSE 2/WK FOR 25 WK BEGINNING 1 WK POST CARCINOGEN D, Route [Inhibitor]: DERMAL, Species: MOUSE, Strain/Sex: CD-1/FEMALE, Target Tissue: Type of Lesion: SKIN: PAPILLOMA, Dose [Carcinogen]: 200 NMOL IN 200 µL ACETONE ONCE, Promoter: MIREX, 2385-85-5) was 100%, 97%, 3%, not significant; the “tumour outcome (control, treated, inhibition, significance)” value (Carcinogen: 7,12-DIMETHYLBENZ[A]ANTHRACENE, 57-97-6, Dose [Inhibitor]: 0, 2 NMOL IN 200 µL ACETONE APPLIED 30 MIN PRIOR TO EACH PROMOTER DOSE 2/WK FOR 25 WK BEGINNING 1 WK POST CARCINOGEN DOS, Route [Inhibitor]: DERMAL, Species: MOUSE, Strain/Sex: CD-1/FEMALE, Target Tissue: Type of Lesion: SKIN: PAPILLOMA, Dose [Carcinogen]: 200 NMOL IN 200 µL ACETONE ONCE, Promoter: 12-O-TETRADECANOYLPHORBOL-13-ACETATE, 16561-29-8) was 90%, 11%, 88%, not calculated; the “tumour outcome (control, treated, inhibition, significance)” value (Carcinogen: 7,12-DIMETHYLBENZ[A]ANTHRACENE, 57-97-6, Dose [Inhibitor]: 0, 2 NMOL IN 200 µL ACETONE APPLIED 30 MIN PRIOR TO EACH PROMOTER DOSE 2/WK FOR 25 WK BEGINNING 1 WK POST CARCINOGEN DOS, Route [Inhibitor]: DERMAL, Species: MOUSE, Strain/Sex: CD-1/FEMALE, Target Tissue: Type of Lesion: SKIN: PAPILLOMA, Dose [Carcinogen]: 200 NMOL IN 200 µL ACETONE ONCE, Promoter: MIREX, 2385-85-5) is recorded as 100%, 92%, 8%, not calculated.
